Source: the NIST ThermoML archive (doi:10.1016/j.jct.2006.10.012)

Experiments:
[1] = Molar enthalpy of transition or fusion; conditions: Crystal; Adiabatic calorimetry

Cc1ccc2nc(C)ccc2c1 [2,6-dimethylquinoline]
Liquid
Conditions	vapor or sublimation pressure [kPa]
336.99 K, Inclined piston gauge	0.0375
339.98 K, Inclined piston gauge	0.0461
349.98 K, Inclined piston gauge	0.0877
359.98 K, Inclined piston gauge	0.1589
369.98 K, Inclined piston gauge	0.2786
379.97 K, Inclined piston gauge	0.4711
389.97 K, Inclined piston gauge	0.7716
399.97 K, Inclined piston gauge	1.227
404.97 K, Inclined piston gauge	1.532
409.97 K, Inclined piston gauge	1.899
411.21 K, Twin ebulliometer	2
414.96 K, Inclined piston gauge	2.34
428.45 K, Twin ebulliometer	3.987
436.24 K, Twin ebulliometer	5.329
447.73 K, Twin ebulliometer	7.992
456.33 K, Twin ebulliometer	10.65
463.33 K, Twin ebulliometer	13.33
470.57 K, Twin ebulliometer	16.66
476.57 K, Twin ebulliometer	19.93
484.49 K, Twin ebulliometer	25.02
492.47 K, Twin ebulliometer	31.19
500.45 K, Twin ebulliometer	38.56
508.5 K, Twin ebulliometer	47.36
516.61 K, Twin ebulliometer	57.81
524.76 K, Twin ebulliometer	70.1
532.96 K, Twin ebulliometer	84.5
541.22 K, Twin ebulliometer	101.3
549.51 K, Twin ebulliometer	120.76
557.86 K, Twin ebulliometer	143.19
566.25 K, Twin ebulliometer	168.98
574.7 K, Twin ebulliometer	198.44
583.18 K, Twin ebulliometer	231.96
591.71 K, Twin ebulliometer	269.97

Conditions	Critical temperature [K]	Triple point temperature [K]	mass density [kg/m3]
348.13 K, Liquid	–	–	995.1
373.12 K, Liquid	–	–	975.8
398.12 K, Liquid	–	–	956.9
423.12 K, Liquid	–	–	938.7
448.11 K, Liquid	–	–	914.4
473.11 K, Liquid	–	–	894
498.11 K, Liquid	–	–	872.2
523.11 K, Liquid	–	–	849.2
Crystal, Adiabatic calorimetry	–	330.84	–
Liquid, DTA	786	–	–

Conditions	Molar enthalpy of transition or fusion [kcal/mol]
[1]	4.88
